Legend:
[1] = tested on: APP α-processing; test: APP secretion assay (sAPPα release, Western blotting) in SH-SY5Y cells; assay type: cell-based, human; conditions: for effect on APP α-processing / APP secretion (in words) / sAPPα release relative to basal line: 2 hours; for effect on APP α-processing / APP secretion (in words): compared with ATP, acetyl-coA, PCr; for sAPPα release relative to basal line: 1 mM each
Method: (§1) SH-SY5Y and fibroblast cells were routinely maintained in DMEM supplemented with 10% bovine fetal serum and 100 μg/ml of streptomycine and 100 U/ml of penicillin. For APP secretion assay, the cells were subcultured in the 12-well plate until confluence and then pre-incubated in the serum-free DMEM for 1 hour before the addition of the testing agents. After incubation for 2 hours at 37° C., conditioned medium was collected and cleared by centrifugation. Proteins were precipitated by trichloroacetic acid and processed for gel electrophoresis and Western blotting as described previously (Weidemann et al. 1989; Chen and Fernandez, 2004). A near-infrared dye-conjugated secondary antibody (LI-COR Biosci., NE, USA) was used and visualized with a LI-COR Odyssey Infrared Imaging System.

[2] = tested on: SH-SY5Y cells; test: Cell survival and viability MTT assay / microscopy in SH-SY5Y cells; assay type: cell-based; conditions: for cell survival, of the untreated control, rotenone-induced death: 2 days, pre-incubation 1 mM each; for cell survival in H2O2-induced death (in words): H2O2 (not shown); for cell survival, of the control, H2O2-induced death: 0.6 mM H2O2, by 20 hours, pre-treatment 1 mM each
Method: SH-SY5Y cells were subcultured in the 12-well plate in DMEM containing 10% fetal bovine serum until 50% confluency. For experiment, the medium was replaced with serum-free DMEM and testing agents were added. The culture was continued in the incubator and parallel samples were taken out at various time intervals for microscopic examination or cell viability assay using an MTT toxicity assay kit (Sigma, Mo.) according to the manufacturer's instructions with modifications (Chen and Fernandez, 2004).

[3] = tested on: APP α-processing; test: APP secretion assay (sAPPα release) in human skin fibroblasts from young and aged donors; assay type: cell-based; conditions: for sAPPα release in aged cells, of the young cell level: aged human skin fibroblasts (donor age 81-96), 0.5 mM each, untreated aged cells 42.5%; for sAPPα level, of the control, co-treatment with rotenone: 0.2 μM rotenone two hours; for sAPPα level, of the control, co-treatment with rotenone / sAPPα level, of the control, co-treatment with H2O2: co-treatment 1.5 mM each; for sAPPα level, of the control, co-treatment with H2O2: 0.2 mM H2O2 two hours
Method: as §1

For `Nc1ncnc2c1ncn2[C@@H]1O[C@H](COP(=O)(O)OP(=O)(O)O)[C@@H](O)[C@H]1O` [ADP, adenosine diphosphate, reference compound], the “effect on APP α-processing / APP secretion (in words)” value [1] was “did not show the same effects”.

With `Nc1ncnc2c1ncn2[C@@H]1O[C@H](COP(=O)(O)OP(=O)(O)OP(=O)(O)O)[C@@H](O)[C@H]1O` [ATP, adenosine triphosphate] the “sAPPα release relative to basal line” value [1] was 3.3 fold, the EC50 ([1]; Homo sapiens, read-out: EC50 for promoting sAPPα release) was 480 µM and the “stimulatory effect on sAPPα release in the presence of NaN3” value ([1]; NaN3 25 mM pre-incubated 15 minutes) was “completely abolished”. For the same molecule, the “stimulatory effect on sAPPα release in the presence of rotenone” value ([1]; rotenone 20 μM pre-incubated 15 minutes) was “completely abolished”, the “cell survival, of the untreated control, rotenone-induced death” value (“cell survival, of the untreated control” for short) ([2]; 0.2 μM rotenone, MTT) was 15% and the “cell survival in H2O2-induced death (in words)” value [2] was “moderately increased cell survival”. For the same molecule, the “sAPPα release in aged cells, of the young cell level” value [3] was 82.3%, the “sAPPα level, of the control, co-treatment with rotenone” value ([3]; young fibroblasts) was 79.2% and the “sAPPα level, of the control, co-treatment with H2O2” value ([3]; young fibroblasts) was 89.3%.

For `CC(C)(COP(=O)(O)OP(=O)(O)OC[C@H]1O[C@@H](n2cnc3c(N)ncnc32)[C@H](O)[C@@H]1OP(=O)(O)O)[C@@H](O)C(=O)NCCC(=O)NCCS` [CoA, coenzyme A, reference compound], the “effect on APP α-processing / APP secretion (in words)” value [1] was “did not show the same effects”.

In the case of `CN(CC(=O)O)C(=N)N` [Cr, creatine, reference compound], the “effect on APP α-processing / APP secretion (in words)” value [1] is reported as “did not show the same effects”.

In the case of `Nc1nc2c(ncn2[C@@H]2O[C@H](COP(=O)(O)OP(=O)(O)OP(=O)(O)O)[C@@H](O)[C@H]2O)c(=O)[nH]1` [GTP, guanosine triphosphate], the “cell survival, of the untreated control” value ([2]; 0.2 μM rotenone, MTT) is reported as 17% and the “cell survival in H2O2-induced death (in words)” value [2] is reported as “moderately increased cell survival”.

`OO` [H2O2, reference compound] was tested, and the “cell death caused by H2O2 alone” value ([2]; 0.6 mM H2O2) was “killed all cells by 10 hours” and the “sAPPα release, of the young cell control, H2O2 alone” value ([3]; young fibroblasts, 0.2 mM H2O2, two hours) was 46.1%.

`CN(CC(=O)O)C(=N)NP(=O)(O)O` [PCr, phosphocreatine] was tested, and the “sAPPα release relative to basal line” value [1] was 4.2 fold, the “cell survival, of the untreated control” value ([2]; 0.2 μM rotenone, MTT) was 42% and the “cell survival, of the control, H2O2-induced death” value (from here on “cell survival, of the control”) [2] was 49%. For the same molecule, the “sAPPα release in aged cells, of the young cell level” value [3] was 79.6%.

With `C=C(OP(=O)(O)O)C(=O)O` [PEP, phosphoenol pyruvate] the “cell survival, of the untreated control” value ([2]; 0.2 μM rotenone, MTT) was 53%, the “cell morphology under microscopy, rotenone-induced death” value ([2]; 0.2 μM rotenone, pre-incubation 1 mM for 30 min) was “substantially preserved the cell shape and the processes” and the “cell survival, of the control” value [2] was 38%. The “sAPPα level, of the control, co-treatment with rotenone” value ([3]; young fibroblasts) was 90.3%.

With `CC(=O)SCCNC(=O)CCNC(=O)[C@H](O)C(C)(C)COP(=O)(O)OP(=O)(O)OC[C@H]1O[C@@H](n2cnc3c(N)ncnc32)[C@H](O)[C@@H]1OP(=O)(O)O` [acetyl-coA, acetyl coenzyme A] the “sAPPα release relative to basal line” value [1] was 3.8 fold, the “cell survival, of the untreated control” value ([2]; 0.2 μM rotenone, MTT) was 35% and the “cell survival, of the control” value [2] was 21%. For the same molecule, the “sAPPα level, of the control, co-treatment with H2O2” value ([3]; young fibroblasts) was 74.5%.

With `N[C@@H](CCC(=O)O)C(=O)O` [glutamate, reference compound] the “sAPPα release relative to basal line” value [1] was 2.3 fold.

`C=C(C)[C@H]1Cc2c(ccc3c2O[C@@H]2COc4cc(OC)c(OC)cc4[C@@H]2C3=O)O1` [rotenone, reference compound] was tested, and the “cell death caused by rotenone alone” value ([2]; 0.2 μM rotenone, MTT) was “caused all cells to die by 2 days” and the “sAPPα level, of the control, rotenone alone” value ([3]; young fibroblasts, 0.2 μM rotenone, two hours) was 52.3%.
